Structures can show the parent of a compound that is named as a salt.
Test system: nerve injury induced mechanical allodynia
Assay: Chung model of neuropathic pain (L5-L6 spinal nerve ligation, tactile allodynia, von Frey)
Type: in vivo
Conditions: rat, 1 nmol/kg, alone
Protocol: Animals: Male Sprague-Dawley rats (Charles River, Wilmington, Mass.) weighing 120-150 grams at time of surgery were utilized. These animals were group housed in AAALAC approved facilities at Abbott Laboratories in a temperature-regulated environment with lights on between 0700 and 2000 hours. Food and water was available ad libitum except during testing. All animal handling and experimental protocols were approved by an institutional animal care and use committee (IACUC). All experiments were performed during the light cycle.
Chemicals: 5-[(2R)-Azetidin-2-ylmethoxy]-2-chloropyridine (Compound A, 1-100 nmol/kg) and 3-(3-pyridin-3-yl)-1,2,4-oxadiazol-5-yl)benzonitrile (α4β2 PAM Compound 1, 1-35 μmol/kg, i.p.) was used. Compound A and D was prepared in saline and injected in solution in a volume of 2 ml/kg body weight 30 minutes before behavioral evaluation. Compound 1,3-(3-(pyridin-3-yl)-1,2,4-oxadiazol-5-yl)benzonitrile, was prepared in 30% hydroxybetacyclodextrin and injected in solution in a volume of 4 ml/kg body weight immediately before Compound A. For studies with Compound D, the doses tested ranged from 0.3-30 μmol/kg i.p.
Experimental Procedure: To produce neuropathic pain, tight ligation of the L5-L6 spinal nerves was performed. As previously described in detail by Kim and Chung (Kim S H and Chung J M (1992), Pain 50: 355), following sterilization procedures, a 1.5 cm incision was made dorsal to the lumbosacral plexus. The paraspinal muscles (left side) were separated from the spinous processes, the L5 and L6 spinal nerves isolated, and tightly ligated with 3-0 silk thread. Following hemostasis, the wound was sutured and coated with antibiotic ointment. The rats were allowed to recover and then placed in a cage with soft bedding for 7-14 days before behavioral testing for mechanical allodynia.
Tactile allodynia was measured using calibrated (force; g) von Frey filaments (Stoelting, Wood Dale, Ill.). Briefly, rats were placed into individual plexiglass containers and allowed to acclimate for 15-20 minutes before testing. Withdrawal threshold was determined by increasing and decreasing stimulus intensity and estimated using a Dixon non-parametric test (Chaplan et al., 1994; Chaplan S R, Bach F W, Pogrel J W, Chung J M and Yaksh T L (1994) J Neurosci Methods 53:55-63). Only rats with threshold scores ≦4.5 g were considered allodynic and utilized in further testing. A percent of maximal possible effect (% M.P.E.) of the tested compounds was calculated according to the formula: ([post-drug threshold]−[baseline threshold])/([maximum threshold]−[baseline threshold])×100%, where maximum threshold was equal to 15 g.
Statistical analysis: Analysis of the in vivo data was carried out using analysis of variance. Where appropriate, Bonferroni's Multiple Comparison Test was used for post-hoc analysis. The level of significance was set at p less than 0.05. Data are presented as mean ±S.E.M.

Row | Structure (SMILES) | efficacy in neuropathic pain
1 | Clc1ccc(OC[C@H]2CCN2)cn1 [Compound A, 5-[(2R)-azetidin-2-ylmethoxy]-2-chloropyridine] | ineffective

Same assay, conditions: rat, 0.03 μmol/kg, i.p., alone

Row | Structure (SMILES) | mechanical paw withdrawal threshold (PWT)
2 | Clc1ccc(OC[C@H]2CCN2)cn1 [Compound A, 5-[(2R)-azetidin-2-ylmethoxy]-2-chloropyridine] | 5.6 ± 0.3 g

Same assay, conditions: rat, Compound A 1 nmol/kg combined with varying doses of PAM Compound 1

Row | Structure (SMILES) | efficacy in neuropathic pain
3 | Clc1ccc(OC[C@H]2CCN2)cn1 [Compound A, 5-[(2R)-azetidin-2-ylmethoxy]-2-chloropyridine] | dose-dependent increase in efficacy

Molecular target: T1, human α4β2 nicotinic acetylcholine receptor (Homo sapiens, UniProt P17787+P43681)
T1 construct: expressed in transfected cells
T1 sequence (P43681 29-627 limits assumed): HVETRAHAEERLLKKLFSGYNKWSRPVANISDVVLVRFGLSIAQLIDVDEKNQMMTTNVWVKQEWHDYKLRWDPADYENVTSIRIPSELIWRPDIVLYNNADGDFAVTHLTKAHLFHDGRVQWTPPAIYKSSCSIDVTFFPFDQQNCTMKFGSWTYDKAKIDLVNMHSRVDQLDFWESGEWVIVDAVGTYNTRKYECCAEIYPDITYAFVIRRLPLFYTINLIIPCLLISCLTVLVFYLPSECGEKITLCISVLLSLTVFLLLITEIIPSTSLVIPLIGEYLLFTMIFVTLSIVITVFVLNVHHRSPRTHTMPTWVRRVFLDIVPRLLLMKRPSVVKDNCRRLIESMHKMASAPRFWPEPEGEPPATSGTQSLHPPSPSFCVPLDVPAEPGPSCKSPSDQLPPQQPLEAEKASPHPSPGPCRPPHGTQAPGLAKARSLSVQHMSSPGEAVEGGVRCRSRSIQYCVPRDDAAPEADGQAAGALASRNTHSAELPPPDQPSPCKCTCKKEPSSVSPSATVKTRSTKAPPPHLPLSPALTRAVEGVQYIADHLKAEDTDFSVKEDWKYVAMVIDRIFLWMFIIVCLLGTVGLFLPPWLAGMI
T1 sequence (P17787 26-502): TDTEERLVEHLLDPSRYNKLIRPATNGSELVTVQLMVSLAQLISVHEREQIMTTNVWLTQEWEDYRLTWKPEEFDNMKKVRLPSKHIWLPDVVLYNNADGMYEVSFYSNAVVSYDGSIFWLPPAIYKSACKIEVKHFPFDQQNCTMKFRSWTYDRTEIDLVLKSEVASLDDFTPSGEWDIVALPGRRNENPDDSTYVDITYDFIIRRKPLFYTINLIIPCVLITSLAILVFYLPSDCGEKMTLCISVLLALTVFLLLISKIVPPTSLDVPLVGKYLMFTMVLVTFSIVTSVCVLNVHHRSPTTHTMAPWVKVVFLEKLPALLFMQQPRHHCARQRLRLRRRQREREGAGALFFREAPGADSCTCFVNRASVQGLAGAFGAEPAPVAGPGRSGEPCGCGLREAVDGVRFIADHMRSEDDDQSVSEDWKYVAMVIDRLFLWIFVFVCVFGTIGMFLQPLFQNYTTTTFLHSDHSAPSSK
Assay: Calcium flux (FLIPR) assay, HEK-293 cells expressing human α4β2 nAChR
Type: cell-based
Conditions: presence and absence of α4β2 PAM Compound 1, FIG. 5
Protocol: Experimental Procedure: Human embryonic kidney (HEK) 293 cells stably expressing human α4β2 or α3β4 combinations are grown to confluency in 162 cm^2 tissue culture flasks in DMEM media supplemented with 10% FBS and 25 μg/ml zeocin and 200 μg/ml hygromycin B. IMR-32 neuroblastoma cells (ATCC) are grown to confluency in 162 cm^2 tissue culture flasks in minimum essential media supplemented with 10% FBS and 1 mM sodium pyruvate, 1% non-essential amino acids and 1% antibiotic-antimycotic. The cells are then dissociated using cell dissociation buffer and 100-150 μl per well of 3.5×10^5 cells/ml cell suspension (˜50,000-100,000 cells/well) was plated into 96-well black plates (poly-D-lysine precoated) with clear bottom and maintained for 24-48 hours in a tissue culture incubator at 37° C. under an atmosphere of 5% CO2: 95% air. Other clonal cell lines or primary cell cultures that express endogenous α4* nicotinic receptors may also be used in this assay. Calcium flux was measured using calcium-3 assay kit (Molecular Devices, Sunnyvale, Calif.) or fluo-4 (Invitrogen). A stock solution of the dye was prepared by dissolving each vial supplied by the vendor in Hank's balanced salt solution buffer (HBSS) or 150 mM NMDG, 20 mM CaCl2 containing 10 mM HEPES, The stock solution was diluted 1:20 using the same buffer before use. The growth media was removed from the cells. The cells were loaded with 100 μl of the dye per well and incubated at room temperature for up to one hour for HEK 293 clonal stable cell lines or 30 minutes-45 minutes at 37° C. for IMR-32 cells Fluorescence measurements were read simultaneously from all the wells by a Fluorometic Imaging Plate Reader (FLIPR) at an excitation wavelength of 480 nm and an emission wavelength of 520 nm. Baseline fluorescence was measured for the first 6 seconds at which 3× concentrations of modulator/test compounds were added to the cell plate at 50 μl and incubated for five minutes. The fluorescence intensity was captured every second for the first 1 minute followed by every 5 seconds for an additional 4 minutes. This procedure was followed by 50 μl of 4× concentration of agonist and readings were taken for a period of 3-5 minutes as described above. Data was normalized to maximal responses and plotted as a function of concentration. The concentration dependence of changes fluorescence responses was fitted by nonlinear regression analysis (GraphPad Prism, San Diego, Calif.) to obtain EC50 values.
The positive allosteric modulator effects on α4β2 nAChRs exemplified by 3-(3-pyridin-3-yl-1,2,4-oxadiazol-5-yl)benzonitrile (Compound 1) and 3,5-di(pyridin-3-yl)-1,2,4-oxadiazole (Compound 2) can be identified by measuring their potentiating effect to fluorescence changes in intracellular calcium using a fluorimetric plate reader. The potentiating effect of an α4β2 modulator on α4β2 receptor can also be illustrated by concentration responses to α4β2 agonists, for example 5-[(2R)-azetidin-2-ylmethoxy]-2-chloropyridine (Compound A) and (3R)-1-pyridin-3-ylpyrrolidin-3-amine (Compound B), in presence of a fixed concentration of PAM. […] In addition to compound A and B, other known nicotinic agonists can be left-shifted in presence of α4β2 PAM such as […]. […] This could lead to preferential effects of the agonist at the desired subtype, viz., α4β2, without effects at other nicotinic receptor subtypes and thus enhancing in vivo selectivity of the agonist.
The activity (allosteric effects—potentiation of fluorescence responses) ranges are defined as follows; “a” denotes as activity range from 200-400%, “b” denotes an activity range from 150-200%, “c” denotes an activity range from 120-150% and “d” denotes an activity range 90-120%. […]

Row | Structure (SMILES) | potency (EC50 values) for activation of α4β2 nAChRs in the presence vs absence of PAM
4 | CN[C@@H](C)C/C=C/c1cncc(OC(C)C)c1 [ispronicline, reference compound] | increase in the presence of the positive allosteric modulator
5 | c1cnc2cc3c(cc2n1)[C@@H]1CNC[C@H]3C1 [varenicline, reference compound] | increase in the presence of the positive allosteric modulator

Same assay, conditions: α4β2 positive allosteric modulation, calcium fluorescence (FLIPR)

Row | Structure (SMILES) | Activity (allosteric effects—potentiation of fluorescence responses)
6 | c1cncc(-c2noc(-c3cccnc3)n2)c1 [Example 2, 3,5-di(pyridin-3-yl)-1,2,4-oxadiazole] | a (“a” denotes as activity range from 200-400%)
7 | N#Cc1cccc(-c2noc(-c3cccnc3)n2)c1 [Example 3, 3-(5-(pyridin-3-yl)-1,2,4-oxadiazol-3-yl)benzonitrile] | a (“a” denotes as activity range from 200-400%)
8 | N#Cc1cccc(-c2noc(-c3ccc(F)nc3)n2)c1 [Example 4, 3-(5-(6-fluoropyridin-3-yl)-1,2,4-oxadiazol-3-yl)benzonitrile] | b (“b” denotes an activity range from 150-200%)
9 | Brc1cncc(-c2nc(-c3cccnc3)no2)c1 [Example 5, 5-(5-bromopyridin-3-yl)-3-(pyridin-3-yl)-1,2,4-oxadiazole] | c (“c” denotes an activity range from 120-150%)
10 | Cc1ccc(-c2noc(-c3cccc(C#N)c3)n2)cn1 [Example 7, 3-(3-(6-methylpyridin-3-yl)-1,2,4-oxadiazol-5-yl)benzonitrile] | b (“b” denotes an activity range from 150-200%)
11 | Oc1cncc(-c2nc(-c3cccnc3)no2)c1 [Example 9, 5-(3-(pyridin-3-yl)-1,2,4-oxadiazol-5-yl)pyridin-3-ol] | d (“d” denotes an activity range 90-120%)
12 | Fc1ccc(-c2nc(-c3cccnc3)no2)cc1F [Example 10, 5-(3,4-difluorophenyl)-3-(pyridin-3-yl)-1,2,4-oxadiazole] | a (“a” denotes as activity range from 200-400%)
13 | Fc1cccc(-c2nc(-c3cccnc3)no2)c1F [Example 11, 5-(2,3-difluorophenyl)-3-(pyridin-3-yl)-1,2,4-oxadiazole] | a (“a” denotes as activity range from 200-400%)
14 | N#Cc1ccc(-c2nc(-c3cccnc3)no2)cc1 [Example 19, 4-(3-(pyridin-3-yl)-1,2,4-oxadiazol-5-yl)benzonitrile] | b (“b” denotes an activity range from 150-200%)
15 | NS(=O)(=O)c1cccc(-c2nc(-c3cccnc3)no2)c1 [Example 35, 3-(3-(pyridin-3-yl)-1,2,4-oxadiazol-5-yl)benzenesulfonamide] | a (“a” denotes as activity range from 200-400%)
16 | O=[N+]([O-])c1cccc(-c2nc(-c3cccnc3)no2)c1 [Example 40, 5-(3-nitrophenyl)-3-(pyridin-3-yl)-1,2,4-oxadiazole] | a (“a” denotes as activity range from 200-400%)
17 | CS(=O)(=O)c1cccc(-c2nc(-c3cccnc3)no2)c1 [Example 41, 5-(3-(methylsulfonyl)phenyl)-3-(pyridin-3-yl)-1,2,4-oxadiazole] | c (“c” denotes an activity range from 120-150%)
18 | Clc1cc(-c2noc(-c3cccnc3)n2)ccn1 [Example 42, 3-(2-chloropyridin-4-yl)-5-(pyridin-3-yl)-1,2,4-oxadiazole] | c (“c” denotes an activity range from 120-150%)
19 | O=c1ccc(-c2noc(-c3cccnc3)n2)c[nH]1 [Example 55, 5-(5-(pyridin-3-yl)-1,2,4-oxadiazol-3-yl)pyridin-2(1H)-one] | c (“c” denotes an activity range from 120-150%)
20 | CC(=O)c1cccc(-c2nc(-c3cccnc3)no2)c1 [Example 68, 1-(3-(3-(pyridin-3-yl)-1,2,4-oxadiazol-5-yl)phenyl)ethanone] | b (“b” denotes an activity range from 150-200%)
21 | N#Cc1cccc(-c2noc(-c3ccc(Cl)nc3)n2)c1 [Example 76, 3-(5-(6-chloropyridin-3-yl)-1,2,4-oxadiazol-3-yl)benzonitrile] | b (“b” denotes an activity range from 150-200%)
22 | Fc1ccc(-c2nc(-c3ccnnc3)no2)cc1F [Example 83, 5-(3,4-Difluorophenyl)-3-(pyridazin-4-yl)-1,2,4-oxadiazole hydrochloride] | a (“a” denotes as activity range from 200-400%)
23 | Fc1ccc(-c2nc(-c3cncnc3)no2)cc1F [Example 101, 5-(3,4-difluorophenyl)-3-(pyrimidin-5-yl)-1,2,4-oxadiazole tosylate] | a (“a” denotes as activity range from 200-400%)
24 | O=c1[nH]c2cc(-c3nc(-c4cccnc4)no3)ccc2o1 [Example 125, 5-(3-(pyridin-3-yl)-1,2,4-oxadiazol-5-yl)benzo[d]oxazol-2(3H)-one] | a (“a” denotes as activity range from 200-400%)
25 | O=c1[nH]c2cc(-c3noc(-c4cccnc4)n3)ccc2o1 [Example 132, 5-(5-(pyridin-3-yl)-1,2,4-oxadiazol-3-yl)benzo[d]oxazol-2(3H)-one] | a (“a” denotes as activity range from 200-400%)

— patent US8486979B2, “1,2,4 oxadiazole compounds and methods of use thereof” (AbbVie Inc., priority 2006, dated 2013)
